Experimental findings from patent US20250313572A1, “MACROCYCLIC MCL-1 INHIBITORS AND METHODS OF USE” (AbbVie Inc., priority 2017, published 2025) are described below.

Where two headings read alike, the source gives them in different places.

Experiment [1] has as its system NCI-H929 human multiple myeloma tumor cell line. The experiment is described as follows: NCI-H929 cell viability assay (CellTiter-Glo, 24 hours). It counts as cell-based. The following applies: Homo sapiens, NCI-H929, 24 h, read-out: H929 Viability IC50 (μM, 10% FBS), 10% FBS, 24 hours of compound treatment. (ATP-based viability assays read luminescence as a measure of living cells.)

In experiment [2] the test system is AMO-1 human multiple myeloma tumor cell line. Kind of experiment: AMO-1 cell viability assay (CellTiter-Glo, 24 hours). Type of experiment: cell-based. The following applies: Homo sapiens, AMO1, 24 h, read-out: AMO-1 Viability IC50 (μM, 10% FBS), 10% FBS, 24 hours of compound treatment.
The target in experiment [3] is GST-MCL-1 (Homo sapiens, UniProt Q07820). Kind of experiment: TR-FRET MCL-1 binding assay (competition with probe F-Bak). Summed up:
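Test compounds, 11 three-fold dilutions from 25 μM final, incubated 2 hours at room temperature with GST-MCL-1, F-Bak probe and Tb-anti-GST antibody. TR-FRET read at 340/35 nm excitation with 520/525 and 495/510 nm emission. Run without human serum and with 10% HS.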
On the technique in general: TR-FRET usually uses a lanthanide donor and a delayed reading to cut background.

Setting [4] is: MCL-1 Binding Ki (nM, 10% HS), in the presence of 10% HS (human serum).
Setting [5] is: without HS, read-out: MCL-1 Binding Ki.

GST-MCL-1, sequence (Q07820 whole entry): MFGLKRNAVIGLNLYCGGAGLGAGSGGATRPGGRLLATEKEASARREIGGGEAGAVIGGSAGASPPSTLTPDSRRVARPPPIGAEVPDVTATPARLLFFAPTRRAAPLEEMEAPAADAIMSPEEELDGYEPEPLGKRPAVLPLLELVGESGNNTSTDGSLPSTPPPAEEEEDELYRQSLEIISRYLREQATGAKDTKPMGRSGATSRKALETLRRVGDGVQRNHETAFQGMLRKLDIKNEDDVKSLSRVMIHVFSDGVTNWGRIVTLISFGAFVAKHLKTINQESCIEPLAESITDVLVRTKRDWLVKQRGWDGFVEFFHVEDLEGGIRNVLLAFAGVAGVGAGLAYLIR

By IC50 is commonly meant the midpoint of a concentration-inhibition curve. For orientation: Ki means the equilibrium dissociation constant of an inhibitor or competing ligand from its target. With `Cc1c(Cl)c2c(Cl)c(C)c1-c1c(-c3ccc(F)cc3)sc3ncnc(c13)O[C@@H](C(=O)O)Cc1cc(ccc1OCc1ccnc(C(CO)CO)n1)OC[C@@H](CN1CCN(C)CC1)O2` [Example 62, (7R,16R)-19,23-dichloro-10-{[2-(1,3-dihydroxypropan-2-yl)pyrimidin-4-yl]methoxy}-1-(4-fluorophenyl)-20,22-dimethyl-16-[(4-methylpiperazin-1-yl)methyl]-7,8,15,16-tetrahydro-18,21-etheno-9,13-(metheno)-6,14,17-trioxa-2-thia-3,5-diazacyclononadeca[1,2,3-cd]indene-7-carboxylic Acid], the IC50 was determined as 0.095 µM in experiment [1] and 25.1 nM in experiment [2]. Further, the Ki came out at 2.26 nM in experiment [3] (setting [4]) and 0.324 nM in experiment [3] (setting [5]).
For `Cc1c(Cl)c2c(Cl)c(C)c1-c1c(-c3ccc(F)cc3)sc3ncnc(c13)O[C@@H](C(=O)O)Cc1cc(ccc1OCc1ccnc(N3CC4(COC4)C3)n1)OC[C@@H](CN1CCN(C)CC1)O2` [Example 42, (7R,16R)-19,23-dichloro-1-(4-fluorophenyl)-20,22-dimethyl-16-[(4-methylpiperazin-1-yl)methyl]-10-{[2-(2-oxa-6-azaspiro[3.3]heptan-6-yl)pyrimidin-4-yl]methoxy}-7,8,15,16-tetrahydro-18,21-etheno-9,13-(metheno)-6,14,17-trioxa-2-thia-3,5-diazacyclononadeca[1,2,3-cd]indene-7-carboxylic Acid] the same measures were 0.00314 µM, 1.1 nM, 0.747 nM and 0.085 nM.
For `COCCOCCOCCOCCOCCOCC1(c2nccc(COc3ccc4cc3C[C@H](C(=O)O)Oc3ncnc5sc(-c6ccc(F)cc6)c(c35)-c3c(C)c(Cl)c(c(Cl)c3C)O[C@H](CN3CCN(C)CC3)CO4)n2)CCCC1` [Example 76, (7R,16R)-19,23-dichloro-1-(4-fluorophenyl)-10-({2-[1-(2,5,8,11,14,17-hexaoxaoctadecan-1-yl)cyclopentyl]pyrimidin-4-yl}methoxy)-20,22-dimethyl-16-[(4-methylpiperazin-1-yl)methyl]-7,8,15,16-tetrahydro-18,21-etheno-13,9-(metheno)-6,14,17-trioxa-2-thia-3,5-diazacyclononadeca[1,2,3-cd]indene-7-carboxylic Acid], the 50% inhibitory concentration (IC50) in experiment [1] stood at 0.000648 µM; in experiment [2] it was 0.409 nM. Besides, the results for the Ki in experiment [3] (setting [4]) and in experiment [3] (setting [5]) were 0.634 nM and 0.16 nM, respectively.
The corresponding values for `Cc1c(Cl)c2c(Cl)c(C)c1-c1c(-c3ccc(F)cc3)sc3ncnc(c13)O[C@@H](C(=O)O)Cc1cc(ccc1OCc1ccnc(-c3ccc(CCN4CC5COCC5C4)cc3)n1)OC[C@@H](CN1CCN(C)CC1)O2` (stereo partly drawn) [Example 166, (7R,16R)-19,23-dichloro-1-(4-fluorophenyl)-20,22-dimethyl-16-[(4-methylpiperazin-1-yl)methyl]-10-[(2-{4-[2-(tetrahydro-1H-furo[3,4-c]pyrrol-5 (3H)-yl)ethyl]phenyl}pyrimidin-4-yl)methoxy]-7,8,15,16-tetrahydro-18,21-etheno-9,13-(metheno)-6,14,17-trioxa-2-thia-3,5-diazacyclononadeca[1,2,3-cd]indene-7-carboxylic Acid] are 0.0032 µM, 0.927 nM, 0.058 nM and 0.002 nM.
With `Cc1c(Cl)c2c(Cl)c(C)c1-c1c(-c3ccc(F)cc3)sc3ncnc(c13)O[C@@H](C(=O)O)Cc1cc(ccc1OCc1ccnc(-c3ccc(OCCN4CCP(C)(=O)CC4)cc3)n1)OC[C@@H](CN1CCN(C)CC1)O2` [Example 71, (7R,16R)-19,23-dichloro-1-(4-fluorophenyl)-20,22-dimethyl-10-[(2-{4-[2-(4-methyl-4-oxo-1, 4λ^5-azaphosphinan-1-yl)ethoxy]phenyl}pyrimidin-4-yl)methoxy]-16-[(4-methylpiperazin-1-yl)methyl]-7,8,15,16-tetrahydro-18,21-etheno-13,9-(metheno)-6,14,17-trioxa-2-thia-3,5-diazacyclononadeca[1,2,3-cd]indene-7-carboxylic Acid], the IC50 in experiment [1] was 0.00851 µM; in experiment [2], 4.68 nM. Further, the inhibition constant Ki worked out at 0.106 nM in experiment [3] (setting [4]) and 0.039 nM in experiment [3] (setting [5]).
The corresponding values for `CO[C@H]1O[C@H](COc2ccc(-c3nccc(COc4ccc5cc4C[C@H](C(=O)O)Oc4ncnc6sc(-c7ccc(F)cc7)c(c46)-c4ccc(c(Cl)c4C)O[C@H](CN4CCN(C)CC4)CO5)n3)cc2)[C@@H](O)[C@H](O)[C@@H]1O` [Example 12, methyl 6-O-{4-[4-({[(7R,16R,21S)-7-carboxy-19-chloro-1-(4-fluorophenyl)-20-methyl-16-[(4-methylpiperazin-1-yl)methyl]-7,8,15,16-tetrahydro-18,21-etheno-13,9-(metheno)-6,14,17-trioxa-2-thia-3,5-diazacyclononadeca[1,2,3-cd]inden-10-yl]oxy}methyl)pyrimidin-2-yl]phenyl}-a-D-mannopyranoside] are 0.0316 µM, 18.7 nM, 0.227 nM and 0.603 nM.
As for `COCCOCCOCC1CN(c2nccc(COc3ccc4cc3C[C@@H](C(=O)O)Oc3ncnc5sc(-c6ccc(F)cc6)c(c35)-c3c(C)c(Cl)c(c(Cl)c3C)O[C@H](CN3CCN(C)CC3)CO4)n2)C1` [Example 140, (7S,16R)-19,23-dichloro-1-(4-fluorophenyl)-10-{[2-(3-{[2-(2-methoxyethoxy)ethoxy]methyl}azetidin-1-yl)pyrimidin-4-yl]methoxy}-20,22-dimethyl-16-[(4-methylpiperazin-1-yl)methyl]-7,8,15,16-tetrahydro-18,21-etheno-9,13-(metheno)-6,14,17-trioxa-2-thia-3,5-diazacyclononadeca[1,2,3-cd]indene-7-carboxylic Acid], the IC50 in experiment [1] was 0.244 µM; in experiment [2], 242 nM. Besides, the inhibition constant (Ki) in experiment [3] (setting [4]) turned out to be 166 nM; in experiment [3] (setting [5]), 34.9 nM.
Regarding `Cc1c(Cl)c2c(Cl)c(C)c1-c1c(-c3ccc(F)cc3)sc3ncnc(c13)O[C@@H](C(=O)O)Cc1cc(ccc1OCc1ccnc(-c3ccc(CN4CCS(=O)(=O)CC4)cc3)n1)OC[C@@H](CN1CCN(C)CC1)O2` [Example 126, (7R,16R)-19,23-dichloro-10-[(2-{4-[(1,1-dioxo-1˜^6-thiomorpholin-4-yl)methyl]phenyl}pyrimidin-4-yl)methoxy]-1-(4-fluorophenyl)-20,22-dimethyl-16-[(4-methylpiperazin-1-yl)methyl]-7,8,15,16-tetrahydro-18,21-etheno-13,9-(metheno)-6,14,17-trioxa-2-thia-3,5-diazacyclononadeca[1,2,3-cd]indene-7-carboxylic Acid], the IC50 in experiment [1] was determined as 0.00169 µM; in experiment [2], 0.544 nM. Also, the results for the inhibition constant Ki in experiment [3] (setting [4]) and in experiment [3] (setting [5]) were 0.39 nM and 0.043 nM, respectively.
For `COCCOCCOCCN(CCOCCOCCOC)c1nccc(COc2ccc3cc2C[C@H](C(=O)O)Oc2ncnc4sc(-c5ccc(F)cc5)c(c24)-c2c(C)c(Cl)c(c(Cl)c2C)O[C@H](CN2CCN(C)CC2)CO3)n1` [Example 93, (7R,16R)-10-{[2-(bis{2-[2-(2-methoxyethoxy)ethoxy]ethyl}amino)pyrimidin-4-yl]methoxy}-19,23-dichloro-1-(4-fluorophenyl)-20,22-dimethyl-16-[(4-methylpiperazin-1-yl)methyl]-7,8,15,16-tetrahydro-18,21-etheno-13,9-(metheno)-6,14,17-trioxa-2-thia-3,5-diazacyclononadeca[1,2,3-cd]indene-7-carboxylic Acid] the same measures were 0.00424 µM, 5.53 nM, 4.34 nM and 0.748 nM.
In the case of `Cc1c(Cl)c2c(Cl)c(C)c1-c1c(-c3ccc(F)cc3)sc3ncnc(c13)O[C@@H](C(=O)O)Cc1cc(ccc1OCc1ccnc(-c3ccc(CCN4CCOCC4)cc3)n1)OC[C@@H](CN1CCN(C)CC1)O2` [Example 142, (7R,16R)-19,23-dichloro-1-(4-fluorophenyl)-20,22-dimethyl-16-[(4-methylpiperazin-1-yl)methyl]-10-[(2-{4-[2-(morpholin-4-yl)ethyl]phenyl}pyrimidin-4-yl)methoxy]-7,8,15,16-tetrahydro-18,21-etheno-13,9-(metheno)-6,14,17-trioxa-2-thia-3,5-diazacyclononadeca[1,2,3-cd]indene-7-carboxylic Acid], the 50% inhibitory concentration (IC50) was 0.000156 µM in experiment [1] and 0.0488 nM in experiment [2]. Further, the Ki in experiment [3] (setting [4]) came to 0.776 nM; in experiment [3] (setting [5]), 0.185 nM.
In the case of `Cc1c(Cl)c2c(Cl)c(C)c1-c1c(-c3ccc(F)cc3)sc3ncnc(c13)O[C@@H](C(=O)O)Cc1cc(ccc1OCc1ccnc(C3(COCCOC[C@H]4COCCO4)CCCCC3)n1)OC[C@@H](CN1CCN(C)CC1)O2` [Example 102, (7R,16R)-19,23-dichloro-10-[(2-{1-[(2-{[(2R)-1,4-dioxan-2-yl]methoxy}ethoxy)methyl]cyclohexyl}pyrimidin-4-yl)methoxy]-1-(4-fluorophenyl)-20,22-dimethyl-16-[(4-methylpiperazin-1-yl)methyl]-7,8,15,16-tetrahydro-18,21-etheno-13,9-(metheno)-6,14,17-trioxa-2-thia-3,5-diazacyclononadeca[1,2,3-cd]indene-7-carboxylic Acid], the figures for the IC50 in experiment [1] and in experiment [2] were 0.000835 µM and 0.29 nM, respectively. Further, the Ki in experiment [3] (setting [4]) turned out to be 3.27 nM; in experiment [3] (setting [5]), 0.229 nM.
